Converted amounts (≈) assume the structure as drawn.
Assays:
L1210 cells = test: Cytotoxic activity against L1210 cells; assay type: cell-based; conditions: Mus musculus; L1210 cells, 48 hours, 37° C.; read-out: ED50, cytotoxic activity against L1210
Procedure: To obtain L1210 cells in a logarithmic phase for cytotoxic activity test, in a 250 ml Erlenmeyer flask with a screw cap including Fisher medium warmed to 36° to 37° C. L1210 cells were adjusted to a concentration of 2-3×10^5 cells/ml and then cultured, before 24 hours from the beginning of experiment. Then, the culture solution thus obtained was suspended to prepare a L1210 cell suspension having a concentration of about 0.8-1.0×10^6 cells/ml. Test sample was dissoved in ethanol or dimethylsulfoxide in a certain concentration just before the experiment. 0.1 ml of the sample solution was diluted 10 times with 0.9 ml of a fresh medium. To each screw-capped test tube were added 100, 50, 25 μl, respectively, of the sample dilutions and then added 5 ml of the cell suspension (5×10^4 cells/ml) prepared above to use as the test group. To the test tubes for the control group (2√n: n=number of the samples), only 5 ml of the cell suspension was added. All test tubes were cultured for 48 hours in a CO2 incubator at 37° C. and then the number of cells was counted using a haemacytometer.
(§1) The ED50 value is defined as a concentration (μg/ml) of the sample which inhibits the growth of cancer cells by 50% of the control group and determined according to a method described in NIC's mannual (NIC=National Cancer Institue, U.S.A.). The growth rate Y(%) of cells in the presence of the test sample in each concentration was calculated according to the followign equation: […]
(§2) In the above equation, T means the average cell number per ml in the test group after incubation for 48 hours in the presence of the test samples in each concentration, C means the average cell number per ml in the control group after incubation for 48 hours, and Co means the average cell number per ml in the control group at the beginning of incubation. The Y(%) value at each concentration and log10 value of each concentration were obtained and the regression curve was constructed according to the following equation from those obtained values. In this case, when all the Y(%) value obtained at each concentration is greater than 55% or lower than 45%, the experiment was repeatedly conducted.
(§3) To construct the regression curve Y=A+BX the values A and B were obtained using the following equation. [formula]
(§4) In the above, the value N is the number of selected points which is greater than 2 and lower than, or identical with, the number of cencentration of the test sample, Xi is log(concentration) i, and Yi is the growth ratio at (concentration)i. The value of ED50 was obtained for those obtained slope and intercept.

HL-60 cells = test: Cytotoxic activity against HL-60 cells; assay type: cell-based; conditions: Homo sapiens; HL-60 cells, 48 hours, 37° C.; read-out: ED50, cytotoxic activity against HL-60
Procedure: (§5) As in the test for the cytotoxic activity against L1210 cells, the test samples were dissoved in ethanol or dimethylsulfoxide in a certain concentration. 0.1 ml of the sample solution was mixed with 0.9 ml of a fresh medium to prepare the dilutions. To each two test tubes having a screw cap were added 100, 50, 25 μl, respectively, of the sample dilutions by means of a micropipet. To each test tube for the test group and the control group (2√n: n=number of the samples) was added 5 ml of the dilutions of HL-60 cells and K-562 cells which were cultured and activated before 24 hours from the beginning of experiment and then diluted in a concentration of 1×10^5 cells/mi. All test tubes were cultured for 48 hours in a CO2 incubator at 37° C. and then the number of cells was counted using a haemacytometer.
as §1, §2, §3, §4

S-180 sarcoma cells = test: Animal experiment using Sarcoma S-180 cells (survival of mouse); assay type: in vivo, male ICR mouse; conditions: ip, S-180 ICR mouse, intraperitoneal, 7 to 8 injections; for responders at 15 µmol/kg / responders at 10 µmol/kg: 1200 h, read-out: Number of mouse survived for 50 days (converted); for responders at 15 µmol/kg / response vs control in vivo at 15 µmol/kg: daily dose 15 μmole (mg/kg/day given per compound); for response vs control in vivo at 15 µmol/kg / response vs control in vivo at 10 µmol/kg: read-out: T/C; for responders at 10 µmol/kg / response vs control in vivo at 10 µmol/kg: daily dose 10 μmole (mg/kg/day given per compound)
Procedure: In this experiment, healthy male ICR mouse weighing 20 to 25 g were used as test animal and were fed with water and feed without any restriction in the chamber controlled at the temperature of 23° to 24° C. As the feed, the antibiotic-free feed for mouse was used.
S-180 cells which were incubated for 7 days within abdominal cavity of ICR mouse were separated together with ascites. To the separated cells was added sterilized cold physiological saline and the mixture was centrifuged with 400×g for 2 minutes to separate the cell precipitate. The separated cell precipitate was suspended again in sterilized cold physiological saline and then centrifuged to remove the supernatant. Only S-180 cells were taken, excluding any red bllod cells incorporated therein, washed three times with the same method as above, and then suspended to obtain the cell suspension in concentration of 10^7 cells/ml by counting the number of cells with a haemacytometer. Each 0.1 ml of this cell suspension was transplanted in an abdominal cavity.
After 24 hours from the transplantation, mouse were divided so that each group contains 8 to 9 mouse. The test sample was dissolved in a predetermined amount of dimethylsulfoxide to prepare the stock solution which was stored at 4° C. 30 μl of the stock solution was taken and then mixed with 1.5 ml of physiological saline. 0.1 ml of this mixture was intraperitoneally injected to the test animal. To the control group, 2% dimethylsulfoxide-physiological saline solution was injected. Meanwhile, doxorubicin which is used as the comparative drug was dissolved in 2% dimethylsulfoxide-physiological saline solution and then injected in an amount of 0.5 mg(titer)/kg. The schedule for injection comprises a total of 7 to 8 injections in the manner that after the transplantation of cancer cells 0.1 ml of the test sample per a day is administered for 2 to 4 days followed by the rest for one day. The survival rate was calculated on the basis of the date on which all of one control group is died (approximately 18 to 20 days). The survival rate (T/C, %) was calculated by the following equation as proposed in NIC's protocol: [formula]

A549 cancer cells = test: Cytotoxic activity against A549 cancer cells (sulforhodamin B method); assay type: cell-based; conditions: Homo sapiens; A549 cells, SRB method, 48 hours; read-out: ED50, cytotoxic activity against A549
Procedure: The cytotoxic activity against A549 cancer cells was determined using a method for measuring sulforhodamin B (SRB), which was developed in the year 1989 by NIC for measuring anticancer activity of the drug in vitro. For the experiment, cells under subculturing were separated from the attached surface with trypsin-CDTA solution and then dispensed into a 24-well flat-bottom microplate (Falcon) so that the number of cells per well is 8×10^4 (A549). The microplate was incubated in a CO2 incubator for 24 hours to attach the dispensed cells to bottom. The medium was removed with aspirator. Then, 100 μl of the solution of the test compounds diluted in a log-dose of 6 kinds of concentration was added to each well containing cells, in a multiple of 3. The microplate was incubated for further 48 hours. In addition, the diluted solution of the test compounds above was filtered through a 0.22 μm filter, before addition to the cells, to keep the experiment under sterilized condition. The cells were incubated with the test compounds for 48 hours and then the medium was removed from each well. 100 μl of 10% trichloroacetic acid (TCA) was added to each well and then the plate was allowed to stand at 4° C. for one hour to fix the cells to the bottom of plate. After fixing the cells, the plate was washed 5 to 6 times with water to completely remove any remaining TCA solution and then dried at room temperature until water is no longer present. To the completely dried plate was added the dying solution of 0.4% SRB dissolved in 1% acetic acid in an amount of 250 μl per well to stain the cells for 30 minutes and then the plate was washed again 5 to 6 times with 1% acetic acid solution to remove the remaining SRB which is not bound to the cells. The stained cell plate was dried again at room temperature. Then, the dying solution was carefully dissolved in a certain amount of 10 mM Tris so that the O.D. value in the control group at 520 nm is 0.8-1.0 Å (optical density), and the optical density at 520nm was determined. The ED50 value was obtained from the determined optical density. To calculate the activity of the drug against cancer cells, the number of cells (Tz) at the beginning of the addition of drug, the number of cells (C) after incubation with the medium in the absence of drug for 48 hours and the number of cells (T) after incubation in the presence of drugs at each concentration for 48 hours were determined.
The anticancer activity of the test compounds was determined form the following equations. Specifically, in the […] the equation (T-Tz)/(C-Tz)×100 was used and in the case of Tz<T the equation (T-Tz)/Tz×100 was used. Then the IC50 value wich is the concentration of drug which inhibits the growth of cancer cells by 50% was calcualted from the above calculated values using a data regressive function of LOTUS programme and the cytotoxic activities of the test compounds were compared with each other.

K-562 cells = test: Cytotoxic activity against K-562 cells; assay type: cell-based; conditions: Homo sapiens; K562 cells, 48 hours, 37° C.; read-out: ED50, cytotoxic activity against K562
Procedure: as §5, §1, §2, §3, §4

SMILES | IC50 (L1210 cells) [µg/mL] | IC50 (HL-60 cells) [µg/mL] | responders at 15 µmol/kg (S-180 sarcoma cells) [%] | response vs control in vivo at 15 µmol/kg (S-180 sarcoma cells) [%] | IC50 (A549 cancer cells) [µg/mL] | responders at 10 µmol/kg (S-180 sarcoma cells) [%] | response vs control in vivo at 10 µmol/kg (S-180 sarcoma cells) [%] | IC50 (K-562 cells) [µg/mL]
CCCCCCCCCCCC(=O)OC(CC=C(C)C)C1=CC(=O)c2c(O)ccc(O)c2C1=O (centres unmarked) | 0.7 (≈ 1.49 µM) | 1 (≈ 2.12 µM) | 0 | 110 | > 20 |  |  | 
CCCCCCCC/C=C\CCCCCCCC(=O)OC(CC=C(C)C)C1=CC(=O)c2c(O)ccc(O)c2C1=O (centres unmarked) | 2.4 (≈ 4.34 µM) | 9.6 (≈ 17.4 µM) | 0 | 130 | > 20 |  |  | 
CCCCCCCCCCCCCCCCCC(=O)OC(CC=C(C)C)C1=CC(=O)c2c(O)ccc(O)c2C1=O (centres unmarked) | 1.1 (≈ 1.98 µM) | 10 (≈ 18 µM) | 0 | 110 | > 20 |  |  | 
CC(C)=CCC(OC(=O)c1ccccc1)C1=CC(=O)c2c(O)ccc(O)c2C1=O (centres unmarked) [2-(1-benzoyloxy-4-methyl-3-pentenyl)-5,8-dihydroxy-1,4-naphthoquinone] | 0.1 (≈ 0.255 µM) | 0.1 (≈ 0.255 µM) |  |  | 2.1 (≈ 5.35 µM) | 0 | 135 | 
CC(C)=CCC(OC(=O)C(c1ccccc1)c1ccccc1)C1=CC(=O)c2c(O)ccc(O)c2C1=O (centres unmarked) [2-(1-diphenylacetyloxy-4-methyl-3-pentenyl)-5,8-dihydroxy-1,4-naphthoquinone] | 0.2 (≈ 0.414 µM) | 0.4 (≈ 0.829 µM) | 25 | 208 | 6.3 (≈ 13.1 µM) |  |  | 
CC(C)=CCC(OC(=O)C(C)C)C1=CC(=O)c2c(O)ccc(O)c2C1=O (centres unmarked) [2-(1-isobutanoyloxy-4-methyl-3-pentenyl)-5,8-dihydroxy-1,4-naphthoquinone] | 0.003 (≈ 0.00837 µM) | 0.2 (≈ 0.558 µM) |  |  | 1.9 (≈ 5.3 µM) | 12.5 | 185 | 
CCC=CCC=CCC=CCCCCCCCC(=O)OC(CC=C(C)C)C1=CC(=O)c2c(O)ccc(O)c2C1=O (centres unmarked) [2-(1-linolenyloxy-4-methyl-3-pentenyl)-5,8-dihydroxy-1,4-naphthoquinone] | 1.5 (≈ 2.73 µM) | 4.8 (≈ 8.75 µM) | 0 | 125 | > 20 |  |  | 
CCCCCCCC(=O)OC(CCC(C)C)C1=CC(=O)c2c(O)ccc(O)c2C1=O (centres unmarked) [2-(1-octanoyloxy-4-methylpentyl)-5,8-dihydroxy-1,4-naphthoquinone] | 0.5 (≈ 1.2 µM) |  | 0 | 131 | 1.7 (≈ 4.08 µM) |  |  | 0.6 (≈ 1.44 µM)
CCCCCCCC(=O)OC(CCCCC)C1=CC(=O)c2c(O)ccc(O)c2C1=O (centres unmarked) [2-(1-octanoyloxyhexyl)-5,8-dihydroxy-1,4-naphthoquinone] | 0.2 (≈ 0.48 µM) |  | 0 | 95 | 2.1 (≈ 5.04 µM) |  |  | 0.3 (≈ 0.72 µM)
CC(C)CCOC(CCC(C)C)C1=CC(=O)c2c(O)ccc(O)c2C1=O (centres unmarked) [2-[1-(3-methylbutoxy)-4-methylpentyl]-5,8-dihydroxy-1,4-naphthoquinone] | 0.2 (≈ 0.555 µM) |  | 0 | 186 | 1.1 (≈ 3.05 µM) |  |  | 0.09 (≈ 0.25 µM)
CC/C=C/CC(=O)OC(CCC(C)C)C1=CC(=O)c2c(O)ccc(O)c2C1=O (stereo not drawn) [2-[1-(3-trans-hexenoyloxy)-4-methylpentyl]-5,8-dihydroxy-1,4-naphthoquinone] | 0.05 (≈ 0.129 µM) |  |  |  | 2.4 (≈ 6.21 µM) | 0 | 160 | 0.2 (≈ 0.518 µM)
CC/C=C/CC(=O)OC(CCCCCCCCC)C1=CC(=O)c2c(O)ccc(O)c2C1=O (stereo not drawn) [2-[1-(3-trans-hexenoyloxy)-decyl]-5,8-dihydroxy-1,4-naphthoquinone] | 0.6 (≈ 1.36 µM) |  |  |  | 7.1 (≈ 16 µM) | 0 | 130 | 0.6 (≈ 1.36 µM)
CC/C=C/CC(=O)OC(CCCCC)C1=CC(=O)c2c(O)ccc(O)c2C1=O (stereo not drawn) [2-[1-(3-trans-hexenoyloxy)-hexyl]-5,8-dihydroxy-1,4-naphthoquinone] | 0.2 (≈ 0.518 µM) |  |  |  | 1.5 (≈ 3.88 µM) | 0 | 105 | 0.2 (≈ 0.518 µM)
